Data from ChEMBL document CHEMBL3784982, “Novel dihydropyrazole-chromen: Design and modulates hTERT inhibition proliferation of MGC-803” (Eur J Med Chem, 2016).
The source made the active and inactive calls. The rule behind the calls is not given here.

Tests used:
[1] = target: Telomerase reverse transcriptase (Homo sapiens) (UniProt O14746); assay: Inhibition of human TERT-regulated Wnt/beta-catenin signalling in human MGC803 cells assessed as decrease in beta-catenin protein expression at 40 umol/L measured at 48 hrs by Western blotting method; type: cell-based; conditions: MGC-803
Chain of Telomerase reverse transcriptase (Homo sapiens) (O14746 whole entry): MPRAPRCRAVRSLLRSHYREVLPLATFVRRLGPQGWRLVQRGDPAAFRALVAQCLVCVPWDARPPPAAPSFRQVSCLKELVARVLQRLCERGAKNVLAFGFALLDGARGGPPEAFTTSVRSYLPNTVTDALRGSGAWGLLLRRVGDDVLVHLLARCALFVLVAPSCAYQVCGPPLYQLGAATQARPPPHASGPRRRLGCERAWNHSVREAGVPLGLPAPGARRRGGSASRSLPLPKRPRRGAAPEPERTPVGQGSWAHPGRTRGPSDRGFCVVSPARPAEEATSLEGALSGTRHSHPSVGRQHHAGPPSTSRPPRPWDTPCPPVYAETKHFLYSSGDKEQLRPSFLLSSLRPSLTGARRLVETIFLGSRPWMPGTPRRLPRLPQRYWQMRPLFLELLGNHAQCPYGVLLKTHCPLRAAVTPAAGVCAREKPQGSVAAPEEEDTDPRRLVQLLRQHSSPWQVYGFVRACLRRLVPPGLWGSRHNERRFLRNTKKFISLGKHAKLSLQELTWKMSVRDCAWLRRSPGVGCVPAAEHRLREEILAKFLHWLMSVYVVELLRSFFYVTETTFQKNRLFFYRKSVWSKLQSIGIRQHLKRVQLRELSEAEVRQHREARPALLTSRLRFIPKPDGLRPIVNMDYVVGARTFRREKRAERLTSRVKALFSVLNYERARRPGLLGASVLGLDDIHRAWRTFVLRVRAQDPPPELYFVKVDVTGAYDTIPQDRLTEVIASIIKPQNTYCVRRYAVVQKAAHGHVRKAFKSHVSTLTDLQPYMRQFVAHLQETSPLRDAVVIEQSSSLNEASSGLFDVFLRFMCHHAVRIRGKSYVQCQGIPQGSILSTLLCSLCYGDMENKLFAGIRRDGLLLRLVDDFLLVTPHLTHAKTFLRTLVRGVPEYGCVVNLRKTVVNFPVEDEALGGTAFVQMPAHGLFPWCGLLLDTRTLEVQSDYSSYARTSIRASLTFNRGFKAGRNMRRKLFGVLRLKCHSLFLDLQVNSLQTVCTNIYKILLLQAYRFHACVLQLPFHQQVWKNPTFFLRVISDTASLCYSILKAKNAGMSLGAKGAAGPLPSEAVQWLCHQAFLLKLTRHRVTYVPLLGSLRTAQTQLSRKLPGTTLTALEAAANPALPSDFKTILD

[2] = target: Telomerase reverse transcriptase (Homo sapiens) (UniProt O14746); assay: Inhibition of human TERT-regulated Wnt/beta-catenin signalling in human MGC803 cells assessed as decrease in c-myc mRNA expression at 40 umol/L measured at 48 hrs by RT-PCR method; type: cell-based; conditions: MGC-803
[3] = target: Telomerase reverse transcriptase (Homo sapiens) (UniProt O14746); assay: Inhibition of human TERT-regulated Wnt/beta-catenin signalling in human MGC803 cells assessed as decrease in c-myc protein expression at 40 umol/L measured at 48 hrs by Western blotting method; type: cell-based; conditions: MGC-803
[4] = target: Telomerase reverse transcriptase (Homo sapiens) (UniProt O14746); assay: Inhibition of human TERT-regulated Wnt/beta-catenin signalling in human MGC803 cells assessed as decrease in beta-catenin mRNA expression at 40 umol/L measured at 48 hrs by RT-PCR method; type: cell-based; conditions: MGC-803
[5] = Inhibition of human TERT mRNA expression in human MGC803 cells at 40 umol/L measured at 48 hrs by RT-PCR method; type: functional, cell-based; conditions: MGC-803
[6] = target: Telomerase reverse transcriptase (Homo sapiens) (UniProt O14746); assay: Inhibition of human TERT protein expression in human MGC803 cells at 40 umol/L measured at 48 hrs by Western blotting method; type: cell-based; conditions: MGC-803
[7] = target: Telomerase reverse transcriptase (Homo sapiens) (UniProt O14746); assay: Inhibition of human TERT-regulated Wnt/beta-catenin signalling in human MGC803 cells assessed as decrease in cyclin D1 protein expression at 40 umol/L measured at 48 hrs by Western blotting method; type: cell-based; conditions: MGC-803
[8] = target: Telomerase reverse transcriptase (Homo sapiens) (UniProt O14746); assay: Inhibition of human TERT-regulated Wnt/beta-catenin signalling in human MGC803 cells assessed as decrease in cyclin D1 mRNA expression at 40 umol/L measured at 48 hrs by RT-PCR method; type: cell-based; conditions: MGC-803
[9] = test system: MGC-803; assay: Induction of cell cycle arrest in human MGC803 cells assessed as accumulation at G0/G1 phase at 1 uM after 48 hrs by propidium iodide staining-based flow cytometry (reference value: 32.7%); type: functional
[10] = Antiproliferative activity against human PC3 cells after 48 hrs by MTT assay; type: functional, cell-based; conditions: PC-3, 48 h
[11] = test system: Bcap37; assay: Antiproliferative activity against human Bcap37 cells after 48 hrs by MTT assay; type: functional, cell-based; conditions: Bcap37, 48 h
[12] = target: Telomerase reverse transcriptase (Homo sapiens) (UniProt O14746); assay: Inhibition of human TERT protein expression in human MGC803 cells at 1 uM after 48 hrs by Western blotting method; type: cell-based; conditions: MGC-803
[13] = target: Telomerase reverse transcriptase (Homo sapiens) (UniProt O14746); assay: Inhibition of human TERT expressed in human MGC803 cells assessed as TERT-regulated Wnt/beta-catenin signalling by measuring decrease in beta-catenin protein expression after 48 hrs by Western blotting method; type: cell-based; conditions: MGC-803
[14] = target: Telomerase reverse transcriptase (Homo sapiens) (UniProt O14746); assay: Inhibition of human TERT expressed in human MGC803 cells assessed as TERT-regulated Wnt/beta-catenin signalling by measuring decrease in cyclin D1 mRNA expression after 48 hrs by RT-PCR method; type: cell-based; conditions: MGC-803
[15] = Antiproliferative activity against human SGC7901 cells after 48 hrs by MTT assay; type: functional, cell-based; conditions: SGC-7901, 48 h
[16] = target: Telomerase reverse transcriptase (Homo sapiens) (UniProt O14746); assay: Inhibition of human TERT expressed in human MGC803 cells assessed as TERT-regulated Wnt/beta-catenin signalling by measuring decrease in c-myc protein expression after 48 hrs by Western blotting method; type: cell-based; conditions: MGC-803
[17] = Cytotoxicity against human GES-1 cells after 48 hrs by MTT assay; type: cell-based; conditions: GES1, 48 h
[18] = target: Telomerase reverse transcriptase (Homo sapiens) (UniProt O14746); assay: Inhibition of human TERT-regulated Wnt/beta-catenin signalling in human MGC803 cells assessed as downregulation of beta-catenin mRNA expression by RT-PCR method; type: cell-based; conditions: MGC-803
[19] = target: Telomerase reverse transcriptase (Homo sapiens) (UniProt O14746); assay: Inhibition of human TERT-regulated Wnt/beta-catenin signalling in human MGC803 cells assessed as downregulation of beta-catenin protein expression after 48 hrs by Western blotting method; type: cell-based; conditions: MGC-803
[20] = Antiproliferative activity against human MGC803 cells after 48 hrs by MTT assay; type: functional, cell-based; conditions: MGC-803, 48 h
[21] = target: Telomerase reverse transcriptase (Homo sapiens) (UniProt O14746); assay: Inhibition of human TERT-regulated Wnt/beta-catenin signalling in human MGC803 cells assessed as downregulation of cyclin D1 mRNA expression by RT-PCR method; type: cell-based; conditions: MGC-803
[22] = target: Telomerase reverse transcriptase (Homo sapiens) (UniProt O14746); assay: Inhibition of human TERT expressed in human MGC803 cells assessed as TERT-regulated Wnt/beta-catenin signalling by measuring decrease in c-myc mRNA expression after 48 hrs by RT-PCR method; type: cell-based; conditions: MGC-803
[23] = target: Telomerase reverse transcriptase (Homo sapiens) (UniProt O14746); assay: Inhibition of human TERT-regulated Wnt/beta-catenin signalling in human MGC803 cells assessed as downregulation of c-myc protein expression after 48 hrs by Western blotting method; type: cell-based; conditions: MGC-803
[24] = target: Telomerase reverse transcriptase (Homo sapiens) (UniProt O14746); assay: Inhibition of human TERT-regulated Wnt/beta-catenin signalling in human MGC803 cells assessed as downregulation of c-myc mRNA expression by RT-PCR method; type: cell-based; conditions: MGC-803
[25] = target: Telomerase reverse transcriptase (Homo sapiens) (UniProt O14746); assay: Inhibition of human TERT expressed in human MGC803 cells assessed as TERT-regulated Wnt/beta-catenin signalling by measuring decrease in beta-catenin mRNA expression after 48 hrs by RT-PCR method; type: cell-based; conditions: MGC-803
[26] = Cytotoxicity against human L02 cells after 48 hrs by MTT assay; type: cell-based; conditions: L02, 48 h
[27] = target: Telomerase reverse transcriptase (Homo sapiens) (UniProt O14746); assay: Inhibition of human TERT expressed in human MGC803 cells assessed as TERT-regulated Wnt/beta-catenin signalling by measuring decrease in cyclin D1 protein expression after 48 hrs by Western blotting method; type: cell-based; conditions: MGC-803
[28] = target: Telomerase reverse transcriptase (Homo sapiens) (UniProt O14746); assay: Inhibition of human TERT-regulated Wnt/beta-catenin signalling in human MGC803 cells assessed as downregulation of cyclin D1 protein expression after 48 hrs by Western blotting method; type: cell-based; conditions: MGC-803
[29] = target: Telomerase reverse transcriptase (Homo sapiens) (UniProt O14746); assay: Inhibition of human TERT-regulated Wnt/beta-catenin signalling in human MGC803 cells assessed as decrease in c-myc mRNA expression at […] after 48 hrs by RT-PCR method; type: cell-based; conditions: MGC-803
[30] = Inhibition of human TERT mRNA expression in human MGC803 cells at […] after 48 hrs by RT-PCR method; type: functional, cell-based; conditions: MGC-803
[31] = target: Telomerase reverse transcriptase (Homo sapiens) (UniProt O14746); assay: Inhibition of human TERT-regulated Wnt/beta-catenin signalling in human MGC803 cells assessed as decrease in beta-catenin protein expression at […] after 48 hrs by Western blotting method; type: cell-based; conditions: MGC-803
[32] = target: Telomerase reverse transcriptase (Homo sapiens) (UniProt O14746); assay: Inhibition of human TERT-regulated Wnt/beta-catenin signalling in human MGC803 cells assessed as decrease in c-myc protein expression at […] after 48 hrs by Western blotting method; type: cell-based; conditions: MGC-803
[33] = target: Telomerase reverse transcriptase (Homo sapiens) (UniProt O14746); assay: Inhibition of human TERT-regulated Wnt/beta-catenin signalling in human MGC803 cells assessed as decrease in cyclin D1 protein expression at […] after 48 hrs by Western blotting method; type: cell-based; conditions: MGC-803
[34] = target: Telomerase reverse transcriptase (Homo sapiens) (UniProt O14746); assay: Inhibition of human TERT-regulated Wnt/beta-catenin signalling in human MGC803 cells assessed as decrease in beta-catenin mRNA expression at […] after 48 hrs by RT-PCR method; type: cell-based; conditions: MGC-803
[35] = target: Telomerase reverse transcriptase (Homo sapiens) (UniProt O14746); assay: Inhibition of human TERT-regulated Wnt/beta-catenin signalling in human MGC803 cells assessed as decrease in cyclin-D1 mRNA expression at […] after 48 hrs by RT-PCR method; type: cell-based; conditions: MGC-803
[36] = target: Telomerase reverse transcriptase (Homo sapiens) (UniProt O14746); assay: Inhibition of human TERT protein expression in human MGC803 cells at […] after 48 hrs by Western blotting method; type: cell-based; conditions: MGC-803

SMILES: CCc1ccc(-c2nc(CSCC(=O)NCCc3ccccc3)c(C)o2)cc1
- inhibition [1]: Active
- inhibition [2]: Active
- inhibition [3]: Active
- inhibition [4]: Active
- inhibition [5]: Active
- inhibition [6]: Active
- inhibition [7]: Active
- inhibition [8]: Active

SMILES: O=C(CN1CCCCC1)N1N=C(c2ccccc2)CC1c1cc2ccccc2oc1=O (stereo not given)
- Activity [9]: 50.6%
- IC50 [10]: 4.12 µM
- IC50 [11]: 5.3 µM
- inhibition [12]: Active
- inhibition [13]: Active
- inhibition [14]: Active
- IC50 [15]: 0.46 µM
- inhibition [16]: Active
- IC50 [17]: 2300 µM
- inhibition [18]: Active
- inhibition [19]: Active
- IC50 [20]: 1.41 µM
- inhibition [21]: Active
- inhibition [22]: Active
- inhibition [23]: Active
- inhibition [24]: Active
- inhibition [25]: Active
- IC50 [26]: 2500 µM
- inhibition [27]: Active
- inhibition [28]: Active

SMILES: Cc1cn([C@H]2C[C@H](N=[N+]=[N-])[C@@H](CO)O2)c(=O)[nH]c1=O
- inhibition [29]: Active
- inhibition [30]: Active
- inhibition [31]: Active
- inhibition [32]: Active
- inhibition [33]: Active
- inhibition [34]: Active
- inhibition [35]: Active
- inhibition [36]: Active

SMILES: COc1cccc2c1C(=O)c1c(O)c3c(c(O)c1C2=O)C[C@@](O)(C(=O)CO)C[C@@H]3O[C@H]1C[C@H](N)[C@H](O)[C@H](C)O1 [DOXORUBICIN]
- IC50 [10]: 1.49 µM
- IC50 [11]: 1.19 µM
- IC50 [15]: 0.8 µM
- IC50 [20]: 1.01 µM
